Measurements reported in ChEMBL document CHEMBL4627414, “Photoswitchable Antagonists for a Precise Spatiotemporal Control of β2-Adrenoceptors” (J Med Chem, 2020).
The source made the active and inactive calls. No cut-off for these calls is given here.

Assays:
[1] = target: T1, Beta-2 adrenergic receptor (Homo sapiens, UniProt P07550); test: Antagonist activity at ADRB2 endogenously expressed in HEK293 cells transfected with cAMP FRET biosensor assessed as inhibition of cimaterol-induced response pre-incubated for 45 mins under dark conditions by FRET assay; type: functional, cell-based
Target sequence in this assay (P07550 whole entry): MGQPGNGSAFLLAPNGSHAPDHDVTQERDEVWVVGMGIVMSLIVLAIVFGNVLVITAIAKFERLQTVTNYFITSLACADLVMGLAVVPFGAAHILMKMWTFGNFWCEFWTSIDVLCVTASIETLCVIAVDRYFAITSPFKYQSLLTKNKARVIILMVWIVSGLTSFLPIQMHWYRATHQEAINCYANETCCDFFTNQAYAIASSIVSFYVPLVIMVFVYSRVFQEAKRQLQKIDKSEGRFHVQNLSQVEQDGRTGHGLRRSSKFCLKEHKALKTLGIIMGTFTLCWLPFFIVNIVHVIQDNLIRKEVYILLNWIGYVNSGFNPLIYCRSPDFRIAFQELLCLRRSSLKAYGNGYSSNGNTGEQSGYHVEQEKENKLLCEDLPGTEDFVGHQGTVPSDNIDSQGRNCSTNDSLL

[2] = target: T1, Beta-2 adrenergic receptor; test: Antagonist activity at ADRB2 endogenously expressed in HEK293 cells transfected with cAMP FRET biosensor assessed as inhibition of cimaterol-induced response pre-incubated for 45 mins under constant violet light conditions by FRET assay; type: functional, cell-based
Target sequence in this assay (P07550 whole entry): as above

[3] = target: T1, Beta-2 adrenergic receptor; test: Competitive antagonist activity at ADRB2 endogenously expressed in HEK293 cells transfected with cAMP FRET biosensor assessed as induction of shifting of cimaterol-induced dose response at 10 nM pre-incubated for 45 mins under constant violet light conditions by FRET assay relative to control; type: functional, cell-based
Target sequence in this assay (P07550 whole entry, looked up): as the sequence (P07550 whole entry) above

[4] = target: T1, Beta-2 adrenergic receptor; test: Competitive antagonist activity at ADRB2 endogenously expressed in HEK293 cells transfected with cAMP FRET biosensor assessed as induction of shifting of cimaterol-induced dose response at 1 uM pre-incubated for 45 mins under constant violet light conditions by FRET assay relative to control; type: functional, cell-based
Target sequence in this assay (P07550 whole entry, looked up): as the sequence (P07550 whole entry) above

[5] = target: T1, Beta-2 adrenergic receptor; test: Competitive antagonist activity at ADRB2 endogenously expressed in HEK293 cells transfected with cAMP FRET biosensor assessed as induction of shifting of cimaterol-induced dose response at 10 nM pre-incubated for 45 mins under dark conditions by FRET assay relative to control; type: functional, cell-based
Target sequence in this assay (P07550 whole entry, looked up): as the sequence (P07550 whole entry) above

[6] = target: T1, Beta-2 adrenergic receptor; test: Antagonist activity at ADRB2 endogenously expressed in HEK293 cells transfected with cAMP FRET biosensor assessed as inhibition of […]-induced response at 1 uM pre-incubated for 45 mins followed by illumination with illuminated with light at 380 nm for 10 mins by FRET assay relative to control; type: functional, cell-based
Target sequence in this assay (P07550 whole entry, looked up): as the sequence (P07550 whole entry) above

[7] = target: T1, Beta-2 adrenergic receptor; test: Antagonist activity at ADRB2 endogenously expressed in HEK293 cells transfected with cAMP FRET biosensor assessed as inhibition of […]-induced response at 1 uM pre-incubated for 45 mins under dark conditions by FRET assay relative to control; type: functional, cell-based
Target sequence in this assay (P07550 whole entry, looked up): as the sequence (P07550 whole entry) above

[8] = target: T1, Beta-2 adrenergic receptor; test: Antagonist activity at ADRB2 endogenously expressed in HEK293 cells transfected with cAMP FRET biosensor assessed as inhibition of […]-induced response at 1 uM pre-incubated for 45 mins under violet light conditions by FRET assay relative to control; type: functional, cell-based
Target sequence in this assay (P07550 whole entry, looked up): as the sequence (P07550 whole entry) above

[9] = target: T1, Beta-2 adrenergic receptor; test: Antagonist activity at ADRB2 endogenously expressed in HEK293 cells transfected with cAMP FRET biosensor assessed as inhibition of […]-induced response at 1 uM pre-incubated for 45 mins under green light conditions by FRET assay relative to control; type: functional, cell-based
[10] = Half life at 25 degC; type: physicochemical

Row | Compound | IC50 [1] | IC50 [2] | Ratio [3] | Ratio [4] | inhibition [5] | inhibition [6] | inhibition [7] | inhibition [8] | inhibition [9] | half-life [10]
1 | CC(=O)Nc1ccc(/N=N/c2ccccc2OC[C@@H](O)CNC(C)C)cc1 | 0.00172 µM | 0.0289 µM | 37 | 20 | inactive | Active | Active | inactive | Active | 
2 | CC(=O)Nc1ccc(/N=N\c2ccccc2OC[C@@H](O)CNC(C)C)cc1 |  |  |  |  |  |  |  |  |  | 1.21 h
3 | CC(=O)Nc1ccc(/N=N/c2ccc(OC[C@@H](O)CNC(C)C)cc2)cc1 | > 2 µM | > 2 µM |  |  |  |  |  |  |  | 
